Laboratory results published in ChEMBL document CHEMBL4342407, “Thieno[2,3-d]pyrimidine as a promising scaffold in medicinal chemistry: Recent advances” (Bioorg Med Chem, 2019).

Columns and labels:
[1] = system: Hepatovirus A; test: Antiviral activity against Hepatitis A virus infected in HepG2 cells assessed as virus inhibition at 40 ug/L incubated overnight with virus followed by inoculation and measured after 1 hr by crystal violet staining based plaque reduction assay; format: functional
[2] = system: Bacillus subtilis; test: Antibacterial activity against Bacillus subtilis assessed as zone inhibition at 100 ug/ml; format: functional; conditions: read-out: IZ
[3] = system: Escherichia coli; test: Antibacterial activity against Escherichia coli assessed as zone inhibition at 100 ug/ml; format: functional; conditions: read-out: IZ
[4] = system: Klebsiella pneumoniae; test: Antibacterial activity against Klebsiella pneumoniae assessed as zone inhibition at 100 ug/ml; format: functional; conditions: read-out: IZ
[5] = system: Staphylococcus aureus; test: Antibacterial activity against Staphylococcus aureus assessed as zone inhibition at 100 ug/ml; format: functional; conditions: read-out: IZ
[6] = system: Rattus norvegicus; test: Antiinflammatory activity in gamma irradiated rat assessed as reduction in serum TNFalpha level at 150 mg/kg, ip administered once daily for 7 consecutive days by ELISA (reference value: 105.07 +/- 3.925 pg/ml); format: functional
[7] = system: Rattus norvegicus; test: Antiinflammatory activity in gamma irradiated rat assessed as reduction in COX-2 level in liver tissue homogenates at 150 mg/kg, ip administered once daily for 7 consecutive days by ELISA (reference value: 89.50 +/- 2.617 ng/ml); format: functional
[8] = system: Rattus norvegicus; test: Antiinflammatory activity in gamma irradiated rat assessed as reduction in serum IL-6 level at 150 mg/kg, ip administered once daily for 7 consecutive days by ELISA (reference value: 103.87 +/- 3.273 pg/ml); format: functional
[9] = system: Rattus norvegicus; test: Antiinflammatory activity in gamma irradiated rat assessed as reduction in NFkappaB level in liver tissue homogenates at 150 mg/kg, ip administered once daily for 7 consecutive days by ELISA (reference value: 258.33 +/- 4.216 pg/ml); format: functional
[10] = system: Rattus norvegicus; test: Antiinflammatory activity in Sprague-Dawley rat assessed as inhibition of carrageenan-induced edema at 15 mg/kg, po pretreated for 1 hr followed by carrageenan challenge and measured after 4 hrs by mercury plethysmometer relative to control; format: functional
[11] = Ulcerogenic activity in Sprague-Dawley rat assessed as ulcer index at 20 mg/kg, ip pretreated followed by pylorus ligation and measured at 4 hrs post ligation; format: toxicity, organism-based; conditions: in vivo
[12] = system: Mus musculus; test: Analgesic activity in Swiss albino mouse assessed as protection against acetic acid-induced writhing at 15 mg/kg, po pretreated for 30 mins followed by acetic acid challenge and measured after 20 mins relative to control; format: functional
[13] = system: HCT-116; test: Antiproliferative activity against human HCT116 after 18 hrs by MTT assay; format: functional, cell-based; conditions: HCT-116, 18 h
[14] = system: Human alphaherpesvirus 1; test: Antiviral activity against Herpes simplex virus 1 at 50 ug/10^5; format: functional
[15] = system: Human alphaherpesvirus 1; test: Antiviral activity against Herpes simplex virus 1 at 20 ug/10^5; format: functional
[16] = Inhibition of Influenza A virus H3N2 Neuraminidase
[17] = system: A549; test: Antiproliferative activity against human A549 after 18 hrs by MTT assay; format: functional, cell-based; conditions: A549, 18 h

NC12CC3CC(CC(C3)C1)C2 [AMANTADINE]
inhibition (INH) [1]: 55%

c1cnc(C2=NOC(c3cc4cncnc4s3)C2)cn1 (stereo unspecified)
zone of inhibition at 100 µg/mL [2]: 11 mm | zone of inhibition at 100 µg/mL [3]: 13 mm | zone of inhibition at 100 µg/mL [4]: 12.5 mm | zone of inhibition at 100 µg/mL [5]: 11.5 mm

CC(=O)OC[C@H]1O[C@@H](Sc2nc3sc4c(c3c(=O)n2CCO)CCCCC4)[C@H](OC(C)=O)[C@@H](OC(C)=O)[C@@H]1OC(C)=O
inhibition (INH) [1]: 65%

CCOC(=O)c1sc2ncnc(Cl)c2c1C
Serum TNFalpha level [6]: 41.53 pg/mL | COX-2 level in liver homogenate [7]: 36.33 ng/mL | Serum IL-6 level [8]: 50.1 pg/mL | NFkappaB level in liver tissue [9]: 138.17 pg/mL

CC(=O)Cc1c(C(C)C)sc2nc(C)[nH]c(=O)c12
inhibition in vivo at 15 mg/kg [10]: 74.5% | UI [11]: 1.1 | Activity [12]: 59%

CC(=O)c1nn(-c2ccc(Cl)cc2)c2nc3sc(-c4ccccc4)c(C)c3c(=O)n12
inhibition in vivo at 15 mg/kg [10]: 74.5% | UI [11]: 0.9 | Activity [12]: 35%

CCc1cc2c(OCc3cc(-c4ccc(OC)cc4)no3)ncnc2s1
IC50 [13]: 112 µM

Cc1nc(SCCO)c2c3c(sc2n1)CCc1ccccc1-3
Activity [14]: 75% | Activity [15]: 40%

FC(F)(F)Oc1ccc(C2=NOC(c3cc4cncnc4s3)C2)cc1 (stereo unspecified)
zone of inhibition at 100 µg/mL [2]: 12.5 mm | zone of inhibition at 100 µg/mL [3]: 16.5 mm | zone of inhibition at 100 µg/mL [4]: 15 mm | zone of inhibition at 100 µg/mL [5]: 14.5 mm

Cc1c(-c2ccccc2)sc2nc3n(-c4ccccc4)nc(-c4ccccc4)n3c(=O)c12
inhibition in vivo at 15 mg/kg [10]: 74.6% | UI [11]: 1.1 | Activity [12]: 52%

c1csc(C2=NOC(c3cc4cncnc4s3)C2)c1 (stereo unspecified)
zone of inhibition at 100 µg/mL [2]: 11.5 mm | zone of inhibition at 100 µg/mL [3]: 15.5 mm | zone of inhibition at 100 µg/mL [4]: 14.5 mm | zone of inhibition at 100 µg/mL [5]: 12.5 mm

CCOC(=O)c1sc2ncnc(N[C@@H](CCSC)C(=O)O)c2c1C
Serum TNFalpha level [6]: 38.5 pg/mL | COX-2 level in liver homogenate [7]: 28.5 ng/mL | Serum IL-6 level [8]: 45.72 pg/mL | NFkappaB level in liver tissue [9]: 66.17 pg/mL

O=C1c2ccccc2C(=O)N1Nc1nc(-c2c[nH]c3ccccc23)nc2sc3c(c12)CCCC3
IC50 [16]: 67 nM

CC(=O)OC[C@H]1O[C@@H](Sc2nc3sc4c(c3c(=O)n2Cc2ccccc2)CCCCC4)[C@H](OC(C)=O)[C@@H](OC(C)=O)[C@@H]1OC(C)=O
inhibition (INH) [1]: 55%

COCCSc1ncnc2sc3c(c12)-c1ccccc1CC3
Activity [14]: 30% | Activity [15]: 15%

FC(F)(F)c1ccc(C2=NOC(c3cc4cncnc4s3)C2)cc1 (stereo unspecified)
zone of inhibition at 100 µg/mL [2]: 13 mm | zone of inhibition at 100 µg/mL [3]: 17 mm | zone of inhibition at 100 µg/mL [4]: 16.5 mm | zone of inhibition at 100 µg/mL [5]: 15 mm

CC(=O)OC[C@H]1O[C@@H](Sc2nc3sc4c(c3c(=O)n2C)CCCCC4)[C@H](OC(C)=O)[C@@H](OC(C)=O)[C@@H]1OC(C)=O
inhibition (INH) [1]: 50%

Cc1cc2c(OCc3cc(-c4ccc(Cl)cc4)no3)ncnc2s1
IC50 [17]: 2790 nM | IC50 [13]: 6.69 µM

O=CC1CN(c2nc(-c3c[nH]c4ccccc34)nc3sc4c(c23)CCCC4)N=C1c1ccccc1 (stereo unspecified)
IC50 [16]: 89 nM
